Results: PubChem BioAssay AID652265 (Sanford-Burnham Center for Chemical Genomics, 2013)
Active and inactive are the calls of the source.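 The calls were made as follows: active = compounds whose half-maximal inhibitory concentration in the worm GFP to RFP ratio test is 5 micromolar or lower; inactive = the rest.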

Test system: C. elegans VP596 Pgst-4::GFP/RFP ratio, acrylamide, 24 h
Experiment: SKN-1 inhibitor analog confirmation in worms, SAR follow-up, whole organism, GFP/RFP fluorescence ratio, round 2 (AID 652265)

Structure (SMILES): CCOc1cc(CN(C)C2CCCC2)cc(Cl)c1OCc1ccc(Cl)cc1
- IC50: 423 nM

Structure (SMILES): CCOc1cc(CNC2CCCC2)cc(Cl)c1OCc1ccc(C#N)cc1
- IC50: 400 nM

Structure (SMILES): CCOc1cc(CN2CCN(C)CC2)cc(Cl)c1OCc1ccc(F)cc1
- IC50: 6010 nM (inactive)

Structure (SMILES): COc1cc(CNC2CCCC2)cc(F)c1OCc1ccc(Cl)cc1
- IC50: 1220 nM

Structure (SMILES): C#CCNCc1cc(Cl)c(OCc2ccc(Cl)cc2)c(OCC)c1
- IC50: 8140 nM (inactive)

Structure (SMILES): CCOc1cc(CN(C(C)=O)C2CCCC2)cc(Cl)c1OCc1ccc(Cl)cc1
- IC50: > 64000 nM (inactive)

Structure (SMILES): CCOc1cc(CNC2CC2)cc(Cl)c1OCc1ccc(C#N)cc1
- IC50: 1560 nM

Structure (SMILES): COc1cc(CNC2CCCC2)cc(Br)c1OCc1ccc(Cl)cc1
- IC50: 771 nM

Structure (SMILES): CCOc1cc(CNC2CCCC2)cc(Cl)c1OCc1ccc(Br)cc1
- IC50: 425 nM

Structure (SMILES): CCOc1cc(CN2CCCC2)cc(Cl)c1OCc1ccc(F)cc1
- IC50: 21400 nM (inactive)

Structure (SMILES): CCOc1cc(CNC)cc(Cl)c1OCc1ccc(Cl)cc1
- IC50: > 64000 nM (inactive)

Structure (SMILES): CCOc1cc(CN2CCCCC2)cc(Cl)c1OCc1ccc(F)cc1
- IC50: 432 nM

Structure (SMILES): CCOc1cc(CN2CCCCC2)cc(Cl)c1OCc1ccc(Cl)cc1
- IC50: 495 nM

Structure (SMILES): CCOc1cc(CN2CCN(C)CC2)cc(Cl)c1OCc1ccc(Cl)cc1
- IC50: 3420 nM

Structure (SMILES): CCOc1cc(CN2CCOCC2)cc(Cl)c1OCc1ccc(F)cc1
- IC50: 8890 nM (inactive)

Structure (SMILES): CCOc1cc(CNC2CC2)cc(Cl)c1OCc1ccc(Cl)cc1F
- IC50: 516 nM

Structure (SMILES): CCOc1cc(CNCC2CC2)cc(Cl)c1OCc1ccc(Cl)cc1
- IC50: 6730 nM (inactive)

Structure (SMILES): Cc1cc(CNC2CCCC2)cc(C)c1OCc1ccc(Cl)cc1
- IC50: 1140 nM

Structure (SMILES): C=CCNCc1cc(Cl)c(OCc2ccc(Cl)cc2)c(OCC)c1
- IC50: 12300 nM (inactive)

Structure (SMILES): CCOc1cc(CN2CCOCC2)cc(Cl)c1OCc1ccc(Cl)cc1
- IC50: 1740 nM

Structure (SMILES): CCOc1cc(CN2CCCC2)cc(Cl)c1OCc1ccc(Cl)cc1
- IC50: 3960 nM

Structure (SMILES): CCOc1cc(CNC2CC2)cc(Cl)c1OCc1ccc(Cl)cc1
- IC50: 512 nM

Structure (SMILES): CCOc1cc(CNC2CC2)cc(Cl)c1OCc1ccc(Br)cc1
- IC50: 227 nM

Structure (SMILES): Clc1ccc(COc2c(Cl)cc(CNC3CCCC3)cc2Cl)cc1
- IC50: 928 nM

Structure (SMILES): COc1cc(CNC2CCCC2)cc(Cl)c1OCc1ccc(Cl)cc1
- IC50: 329 nM

Structure (SMILES): CCCNCc1cc(Cl)c(OCc2ccc(Cl)cc2)c(OCC)c1
- IC50: 8680 nM (inactive)

Structure (SMILES): CCOc1cc(CNC2CCCC2)cc(Cl)c1OCc1ccc(Cl)cc1F
- IC50: 863 nM
